Biological target: 11-beta-hydroxysteroid dehydrogenase 1 (Homo sapiens, UniProt P28845)
Assay: Inhibition of 11beta-HSD1 in human mixed sex human liver microsomes assessed as reduction in conversion of [3H]-cortisone to [3H]-cortisol pre-incubated for 15 mins before [3H]-cortisone addition in presence of NADPH by scintillation proximity assay

Sequence of 11-beta-hydroxysteroid dehydrogenase 1 (P28845 whole entry): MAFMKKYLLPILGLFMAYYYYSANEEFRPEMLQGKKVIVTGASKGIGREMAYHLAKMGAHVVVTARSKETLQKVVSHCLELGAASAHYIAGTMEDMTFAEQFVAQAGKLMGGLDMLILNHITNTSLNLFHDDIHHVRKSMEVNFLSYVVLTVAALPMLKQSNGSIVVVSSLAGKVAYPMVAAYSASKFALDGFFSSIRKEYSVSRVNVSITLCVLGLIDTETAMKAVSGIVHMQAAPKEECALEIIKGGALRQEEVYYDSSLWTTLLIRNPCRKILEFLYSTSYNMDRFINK

O=C(NC1C2CC3CC(C2)CC1C3)C1CCCCC1 (stereo unspecified)
IC50: 86 nM
